# Assay results reported in publication PMC9322164, “Novel Neuroprotective Potential of Bunchosia armeniaca (Cav.) DC against Lipopolysaccharide Induced Alzheimer’s Disease in Mice” (Plants, 2022).
# Experiments:
# [1] = DPPH radical scavenging assay; settings: mean ± SD, n = 6
# [2] = ABTS cation radical decolorization assay; settings: mean ± SD, n = 6
# [3] = Ferric reducing antioxidant power (FRAP) assay; settings: mean ± SD, n = 6
# Protocol: Natural products’ ability to reduce metals is regarded as a key marker of their antioxidant properties. Spectroscopically, the quantity of ferric (Fe^3+) complex conversion to ferrous (Fe^2+) form is detected by the color change of the solution based on the compound’s ability for reduction. The increased reduction capability of the studied sample is shown by the higher absorbance of the reaction mixture. FRAP values of B. armeniaca extract and its fractions were recorded in (Table 2) and expressed as EC50 (µg/mL).
# The FRAP technique was carried out in microplates with slight modifications as described by. Briefly, a fresh FRAP solution was prepared shortly before the reaction in a 10:1:1 v/v/v ratio, consisting of acetate buffer (300 mM, PH = 3.6), tripyridyltriazine (TPTZ, 10 mM) in HCl (40 mM), and FeCl3 (20 mM), respectively. […] The FRAP test measured the absorbance change generated by electron-donating antioxidants converting a colorless oxidized Fe^+3-TPTZ complex to a blue-colored Fe^+2 molecule in acidic conditions. Data are represented as mean ± SD.
# FRAP assay data were determined by Microsoft Excel®. […] AChE inhibition activity was performed in triplicate. […] The difference was considered significant when p < 0.05.
# [4] = parameters: method as in earlier work; settings: previous research ref 5; cited from earlier work
# [5] = system: LPS-induced Alzheimer in mice; assay: Y maze spontaneous alternation test in LPS-induced Alzheimer in mice; assay type: in vivo; settings: LPS 250 µg/kg/day IP 7 days; compared to normal control
# Protocol: Fifty male Swiss mice weighing 20–35 gm were chosen for the investigation. They were held in filter-top plastic cages under hygienic conditions, with 12-h light and 12-hour dark cycles and 50% humidity at 28 °C. Unnecessary disturbance of animals was avoided. Squeezing, pressure, and abrasive maneuvers were avoided when dealing with the animals. Throughout the experiment, mice were fed a standard pellet meal, and water was allowed ad libitum. The laboratory animal experiments were conducted to comply with the recommendations of the Guide for the Care and Use of Laboratory Animals of the National Research Centre, Egypt, and the National Institutes of Health (NIH No. 85:23 revised 1985) in accordance with the guidelines provided by the CPCSEA and the World Medical Association Declaration of Helsinki on Ethical Principles for Studies Involving Experimental Animals. […]
# Y maze spontaneous alternation test was performed 24 h after the last treatment dose, according to [126]. […] One day later, the mouse was allowed eight minutes of movements while its motion was recorded. The letter of the mouse was recorded down every time it entered an arm with all of its limbs inside. […] The alternation percentage was determined using the formula below: Number of alternations/(Total arm entries −2) ∗ 100
# NF-κB = assay: Brain content of NF-κB (ELISA) in LPS-induced Alzheimer in mice; assay type: in vivo; settings: LPS 250 µg/kg/day IP 7 days; compared to normal control
# Protocol: (§1) Firstly, mice were anesthetized using an IP injection of ketamine at a dose of 80–100 mg/kg. After they achieved a deep anesthetic state, mice were sacrificed by decapitation. Each mouse’s brain was promptly dissected and washed with phosphate-buffered saline (PBS) to eliminate extra blood. Weighed pieces were homogenized in PBS with the MPW-120 homogenizer, Med Instruments, Poland, to obtain a 20% homogenate, then they were kept overnight at −20 °C. […] The supernatant was removed immediately and assayed for brain contents of NF-κB, IL-1β, CYP2E1, and GFAP. They were determined using an ELISA kit (SunLong Biotec Co., Ltd., Hangzhou, China).
# (§2) Standards and samples were added to wells containing immobilized antibodies specific for […] NF-κB, IL-1β, CYP2E1, and GFAP and kept for 30 min of incubation at 37 °C. After washing, horseradish peroxidase-conjugated streptavidin was added to the wells, kept for 30 min of incubation at 37 °C, and then washed for a second time. The wells were filled with tetramethylbenzidine (TMB) substrate solution and kept for 15 min of incubation at 37 °C; a color was produced in proportion to the quantity of NF-κB, IL-1β, CYP2E1, and GFAP bound. A stop solution was added to the wells to terminate the color development, and color intensity was detected at 450 nm after 10 min [130].
# IL-1β = assay: Brain content of IL-1β (ELISA) in LPS-induced Alzheimer in mice; assay type: in vivo; settings: LPS 250 µg/kg/day IP 7 days; compared to normal control
# Protocol: as §1, §2
# CYP2E1 = assay: Brain content of CYP2E1 (ELISA) in LPS-induced Alzheimer in mice; assay type: in vivo; settings: LPS 250 µg/kg/day IP 7 days; compared to normal control
# Protocol: as §1, §2
# GFAP = assay: Brain content of GFAP (ELISA) in LPS-induced Alzheimer in mice; assay type: in vivo; settings: LPS 250 µg/kg/day IP 7 days; compared to normal control
# Protocol: as §1, §2
# mice brain = assay: Histopathological examination of mice brain (H&E); assay type: in vivo; settings: LPS model, extracts 200 mg/kg/day oral 7 days
# Protocol: Autopsy specimens were obtained from mice brains, divided into several groups and preserved in 10% formol saline for a day. Subsequently, rinsing with tap water, dehydration was achieved by alcohol serial dilutions (methyl, ethyl, and absolute ethyl alcohol). Samples were cleaned with xylene and immersed in paraffin for a day at 56 °C in a hot air oven. Paraffin beeswax tissue blocks were made using a sledge microtome and sectioned at a thickness of […].
compound,measurement,setting,value
Cc1c(C)c2c(c(C)c1O)CCC(C)(C(=O)O)O2 (centres unmarked) [Trolox],DPPH Assay IC50,[1],24.42 ± 0.87 µg/mL
same,ABTS Assay IC50,[2],22.56 ± 0.78 µg/mL
same,FRAP Assay EC50,[3],96.97 ± 2.73 µg/mL
O=C(O)c1cc(O)c(O)c(O)c1 [gallic acid],DPPH IC50,[4],3.6 µg/mL
Lipopolysaccharide [LPS],decrease of Y-maze alteration,[5],58%
same,increase of NF-κB in the brain,NF-κB,309%
same,increase of IL-1β in the brain,IL-1β,193%
same,elevation of CYP2E1 brain content,CYP2E1,235%
same,elevation of GFAP brain expression,GFAP,276%
same,histopathology of cerebellum,mice brain,normal histological findings
same,histopathology of cerebral cortex,mice brain,nuclear pyknosis and neuronal degeneration with focal gliosis
same,histopathology of fascia dentata and hilus in the hippocampus,mice brain,nuclear pyknosis with degeneration
same,histopathology of hippocampus subiculum,mice brain,nuclear pyknosis and degeneration in some neurons
same,histopathology of striatum,mice brain,multiple focal eosinophilic plagues formation
